# Columns and labels:
# SULT1A3 [1] = molecular target: T1, SULT1A3 (Homo sapiens, UniProt P0DMM9); experiment: Initial-rate inhibition of SULT-catalyzed 1-HP sulfonation; type: biochemical; details: parentheses 1 SD; for Ki: in vitro initial rate, 1-HP 5.0 μM, PAPS 0.50 mM, pH 7.5, 25 °C; for % Inhibition at saturation: in vitro, saturating inhibitor
# T1 construct: E. coli–optimized SULT coding regions were inserted into a pGEX-6P expression vector; N-His/GST/MBP triple tag (PreScission-cleavable) (N, cleaved yes); made in house; host or cells: E. coli BL21(DE3)
# T1 sequence (P0DMM9 whole entry): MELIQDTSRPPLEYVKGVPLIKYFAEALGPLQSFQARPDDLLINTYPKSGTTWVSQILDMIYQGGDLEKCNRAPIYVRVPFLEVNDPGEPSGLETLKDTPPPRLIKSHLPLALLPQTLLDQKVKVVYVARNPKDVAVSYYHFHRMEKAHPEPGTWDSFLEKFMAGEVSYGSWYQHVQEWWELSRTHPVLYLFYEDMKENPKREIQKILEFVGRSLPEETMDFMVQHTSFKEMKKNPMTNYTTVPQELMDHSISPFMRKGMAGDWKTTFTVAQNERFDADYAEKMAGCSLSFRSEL
# Method: Figure 3 Affinity, specificity, and binding sites of CMP12 and CMP13. A and B, inhibition studies. Initial rates of SULT-catalyzed 1-HP sulfonation are plotted as a function of inhibitor concentration. Rates are normalized to the rate observed in the absence of the inhibitor. Inhibition of the major SULT isoforms found in the brain and liver were tested. SULT activity was monitored via the sulfonation-dependent change in 1-HP fluorescence (λex = 325 nm, λem = 375 nm ([15], [28])). Reaction conditions were as follows: SULT (20 nM, active sites), PAPS (0.50 mM, 17 × Km), 1-HP (5.0 μM, 61 × Km), KPO4 (50 mM), pH 7.5, 25(±2) °C. Less than 5% of the concentration-limiting substrate was converted to the product at reaction endpoints. Each data point is the average of three independent determinations. The lines passing through the data are least-squares fits to a noncompetitive partial-inhibition model (see Experiment and Initial rate). C, CMP8 competes with CMP12 and CMP13. Initial rates at saturating CMP12 or CMP13 are plotted as a function of CMP8 concentration. Rates are normalized to the rate observed in the absence of the inhibitor. […] Lines passing through the data are the predictions of a noncompetitive partial-inhibition model in which inhibitors compete for the same site (see Experiment and Binding competition). SULT, sulfotransferase; PAP, 3′-phosphoadenosine-5′-phosphate; SULT1A3, sulfotransferase 1A3; PAPS, 3’-phosphoadenosine 5’-phosphosulfate; 1-HP, 1-hydroxypyrene.
# Initial-rate inhibition parameters were obtained from classical initial-rate studies ([16], [28], [43]). Reactions were initiated by addition of PAPS (0.50 mM, 17 × Km) to a solution containing SULT1A3 (20 nM, active sites), inhibitor (0.2–20 × Ki), 1-HP (5.0 μM, 60 × Km), and KPO4 (50 mM), pH 7.5, 25(±2) °C. Reaction progress was monitored via the fluorescence change associated with 1-HP sulfonation (λex = 325 nm, λem = […] ([15], [28])). Less than 5% of the 1-HP was converted to the product at reaction endpoints. Ki and kcat inh (i.e., turnover at saturating inhibitor and substrate) were obtained by fitting to the following quadratic equation for noncompetitive, partial inhibition at [S] >> Km ([44]):(7) v/Vmax=([Etot]+[ESI](α-1))/[Etot] where(8) α=kcat inh/kcat and(9) [ESI]=[([E]tot+[I]tot+Ki)−[([E]tot+[I]tot+Ki)^2−4·[I]tot·[E]tot]^1/2]/2
# SULT1A3 [2] = molecular target: T1, SULT1A3; experiment: Pre-steady-state (stopped-flow fluorescence) binding of PAP to SULT1A3 complexes; details: E·CMP13 vs E
# Description: (§1) Figure 4 The inhibition mechanism. A, equilibrium binding. Binding was monitored via ligand-induced changes in SULT1A3 intrinsic fluorescence (λex = 290 nm, λem = 335 nm). […] Each dot represents the average of three independent titrations. Lines passing through the data represent the outcomes predicted by least-squares fitting of the averaged data to a single-binding-site model. B, representative PAP-binding reaction. PAP binding was monitored using a stopped-flow fluorimeter (λex = 290 nm, λem ≥ 330 nm (cutoff filter)). Reactions were initiated by rapidly mixing (1:1 v/v) a solution containing SULT1A3 (30 nM, dimer), CMP13 (1.0 μM, 100 × Kd), Tam (160 μM, 200 × Kd), KPO4 (50 mM), pH 7.5, 25(±2) °C, with a solution that was identical except that it lacked SULT1A3 and contained PAP (2.0 μM). The average of five independent progress curves shown and the kobs was obtained by fitting the data to a single exponential. C, pre–steady-state binding. PAP binding was monitored as described for panel B. Reactions were initiated by mixing (1:1 v/v) a solution containing SULT1A3 (30 nM, dimer), CMP13 [0 μM (black dots) or 1.0 μM, 100 × Kd (red and blue dots)], Tam [0 μM (black and blue dots) or 160 μM, 200 × Kd (red dots)], KPO4 (50 mM), pH 7.5, 25(±2) °C, with a solution that was identical except that it lacked SULT1A3 and contained PAP at twice the indicated concentrations. Each kobs value was determined in triplicate, and the averaged values are shown. kon and koff are given, respectively, by the slopes and intercepts obtained from linear least-squares fitting of the kobs vs [PAP] plot. PAP, 3′-phosphoadenosine-5′-phosphate; SULT1A3, sulfotransferase 1A3; Tam, 4-hydroxy-tamoxifen.
# To resolve this uncertainty, PAP on- and off-rate constants for a series of open and closed complexes were determined using stopped-flow fluorescence. A representative binding reaction can be seen in Fig. 4B. The binding reactions were pseudo-first order in [PAP], and kobs values were obtained by fitting reaction progress curves to a single-exponential equation. On- and off-rate constants (see Table 3) are given by the plot slopes and intercepts.
# Pre–steady-state binding of PAP to SULT1A3 was monitored via ligand-induced changes in SULT1A3 fluorescence using an Applied Photophysics SX20 stopped-flow spectrofluorometer. Fluorescence was measured at λex = 290 nm and λem ≥ 330 nm (using a cutoff filter). […] All reactions were pseudo first order with respect to [PAP]. kobs values, determined in triplicate at each PAP concentration, were obtained by least-squares fitting the average of five progress curves to a single-exponential equation. kon and koff, obtained by linear least-squares fitting, are given by the slopes and intercepts of four-point kobs-vs-[PAP] plots.
# SULT1A3 [3] = molecular target: T1, SULT1A3; experiment: Equilibrium binding of CMP13 to SULT1A3 complexes (intrinsic fluorescence)
# Description: as §1
# CMP13 binding to SULT1A3 was monitored via binding-induced changes in SULT1A3 intrinsic fluorescence (λex= 290 nm, λem= 335 nm ([17])). […] PAP binding was determined using the same protocol except that [PAP] was varied and CMP13 was 1.0 μM (100 × Ki). Titrations were performed in triplicate. Data were averaged and least-squares fit using a model that assumes a single binding site per monomer.
SMILES,Ki (SULT1A3 [1]) [nM],% Inhibition at saturation (SULT1A3 [1]),fold decrease of the PAP off-rate constant caused by inhibitor (SULT1A3 [2]) [fold],"Kd (SULT1A3 [3]; complex E (unliganded, cap-open)) [nM]","Kd (SULT1A3 [3]; complex E·PAP (cap-closed), PAP 350 μM) [nM]","Kd (SULT1A3 [3]; complex E·PAP·Tam (cap held open), PAP 350 μM, Tam 160 μM) [nM]",fold tighter binding to cap-closed E·PAP than to open form E (SULT1A3 [3]; ratio of Kd values) [fold]
CC(C)Cc1ccc2cc(CCC(N)=O)ccc2n1 [CMP12],70,83 (4) %,,,,,
CC(C)Cc1ccc2cc(/C=C/C(N)=O)cnc2n1 [CMP13],11,98 (2) %,~14,130,11,133,12

# Source: PMC7948405, “Small-molecule control of neurotransmitter sulfonation” (The Journal of Biological Chemistry, 2020)
